Results reported in the SangsterLogP compilation.

Experiments:
[1] = method code SF-AS, from DOI: 10.1016/0378-5173(86)90115-8
[2] = not given; remark: listed apart in the source
[3] = method code SF-RC, from DOI: 10.1002/syn.20147; conditions: pH 7.4
[4] = method code SF-GLC, from DOI: 10.1016/s0021-9673(00)91779-5; conditions: pH 7.0
[5] = method code SF-AS, from DOI: 10.1016/0300-483x(85)90004-6, PMID: 4024126
[6] = method code SF-ILT, from DOI: 10.1002/ardp.19763091008, PMID: 1008678
[7] = method code SF, from DOI: 10.1016/j.bcp.2004.09.021, PMID: 15627482; conditions: pH 7.0
[8] = not given; remark: listed apart in the source
[9] = method code SF-RC, from DOI: 10.1016/s0969-8051(00)00080-9, PMID: 10832080; conditions: pH 13.0
[10] = method code SF-AS, from DOI: 10.1016/s0969-8051(99)00063-3, PMID: 10628565; conditions: pH 7.0
[11] = not given; remark: listed apart in the source
[12] = method code SF, from DOI: 10.1021/jm00140a005, PMID: 7035668; conditions: pH 12.0
[13] = method code SF-AS, from DOI: 10.1016/0223-5234(96)88239-0; conditions: pH 2.0
[14] = method code SF-AS, from DOI: 10.1213/00000539-199008000-00008, PMID: 2375517
[15] = method code SF-RC, from DOI: 10.1016/j.apradiso.2010.08.010, PMID: 20843697; conditions: pH 7.4
[16] = method code SF-AS, from DOI: 10.1016/s0003-2670(01)80868-0
[17] = not given; remark: listed apart in the source
[18] = not given; remark: listed apart in the source
[19] = not given; remark: listed apart in the source
[20] = method code SF-AS, from DOI: 10.1211/0022357011776199, PMID: 11428660; conditions: pH 7.4
[21] = method code SF-AS, from DOI: 10.1002/jps.2600611027, PMID: 5072421
[22] = not given; remark: listed apart in the source
[23] = method code SF, from DOI: 10.1023/a:1012119527214, PMID: 9453056; conditions: pH 12.5
[24] = method code SF-HPLC, from Yu, G.; Xu, X. (1993). Determination of the 1-octanol/water partition coefficient of nitro-PAHs. Huanjing Huaxue, 12(4)299-303.
[25] = method code SF-HPLC, from DOI: 10.1002/ps.2780280108
[26] = method code SF-AS, from DOI: 10.1002/pauz.19770060602
[27] = method code SF-HPLC, from DOI: 10.1248/cpb.37.2861, PMID: 2611948; conditions: pH 4.0
[28] = method code SF-HPLC, from DOI: 10.1006/pest.1998.2384
[29] = not given; remark: listed apart in the source
[30] = method code SF, from DOI: 10.1584/jpestics.12.445
[31] = method code SF-HPLC, from DOI: 10.1023/a:1013643013244, PMID: 11837695; conditions: pH 6.4
[32] = not given; remark: listed apart in the source
[33] = method code SF-HPLC, from DOI: 10.1016/0006-2952(94)90540-1, PMID: 8185676
[34] = method code SF-AS, from DOI: 10.1248/cpb.32.4084, PMID: 6099228; conditions: pH 7.4

Work on CCCCCC(=O)N(C)c1ccc(S(=O)(=O)N(C)C)cc1 yielded a logP [1] of 2.16.
In the case of CCCCC(C#N)(Cn1cncn1)c1ccc(Cl)cc1 (stereo not given), the logP is reported as 3.16.
c1ccc2c(c1)-c1cccc3cccc-2c13 gave a logP [2] of 5.15.
In the case of N#Cc1cc(F)cc(C#Cc2ccccn2)c1, the logD [3] is reported as 2.8.
Work on CCOP(=S)(Oc1ccccc1)c1ccccc1 (stereo not given) yielded a logD [4] of 1.79.
For CC(=O)c1ccc(N2C(=O)CCC2=O)cc1, the logP [5] was 1.37.
CCN(CC)C(=O)[C@@H]1[C@@H](C(=O)N(CC)CC)[C@H]2C=C[C@@H]1C2 gave a logP [6] of 1.16.
With CCCCC1(C(=O)OCCC)CCC=[N+]1[O-] (stereo not given) the logD [7] was 1.16.
Brc1ccc(-c2ccccc2)c(Br)c1 gave a logP [8] of 5.53.
Work on CN1C2CCC1C(c1ccccn1)C2 (stereo not given) yielded a logD [9] of 1.34.
In the case of O=c1[nH]c(Nc2ccccc2)nc2c1ncn2CC(O)CO (stereo not given), the logD [10] is reported as 0.4.
CN(C)c1nc(=O)n(C2CCCCC2)c(=O)n1C showed a logP [11] of 1.85.
Compound COc1cc(Cc2cnc(N)nc2N)cc(OC)c1C has a logD [12] of 2.14.
Cc1ccc(C(=O)c2ncc(C(=O)O)n2C)cc1 showed a logD [13] of 2.25.
Compound CCCNC(C)C(=O)Nc1ccccc1C (stereo not given) has a logP [14] of 2.11.
Work on COc1ccc(C(=O)c2ncc(C(=O)O)n2C)cc1 yielded a logD [13] of 2.01.
Work on O=C(NCCN1C(=O)C=CC1=O)c1cccc(I)c1 yielded a logD [15] of 1.03.
Compound CCCCCC(=O)CC(=O)CCCCC has a logP [16] of 4.88.
In the case of CC(C)(C)C(O)C(Oc1ccc(Cl)cc1)n1cncn1 (stereo not given), the logP is reported as 3.05.
O=c1[nH]c(Nc2ccccc2)nc2c1ncn2CC(O)CSCCO (stereo not given) gave a logD [10] of 0.83.
For ClC1=C(Cl)C2(Cl)C3C4C=CC(C4)C3C1(Cl)C2(Cl)Cl (stereo not given), the logP [17] was 5.67.
CCN/C(=N/C#N)NCCSCc1ncccc1Br gave a logP [18] of 1.98.
CCSc1nc(NC(C)C)nc(NC(C)C)n1 showed a logP [11] of 3.81.
With Clc1cc(Cl)c2oc3c(Cl)c(Cl)c(Cl)c(Cl)c3c2c1Cl the logP [19] was 7.93.
Compound Cc1ncc([N+](=O)[O-])n1CCOC(=O)CN1CCOCC1 has a logD [20] of 0.27.
CCCCCCCCCc1ccncc1 gave a logP [21] of 6.11.
In the case of CN1CCN(c2ncc(-c3ccncc3)cc2C#N)CC1, the logP [22] is reported as 2.96.
Compound CCN(CC)CC(=O)NCC(=O)Nc1c(C)cccc1C has a logD [23] of 2.2.
Compound CCOP(=S)(Oc1ccc(C)cc1)c1ccccc1 (stereo not given) has a logD [4] of 2.22.
O=[N+]([O-])c1ccc2c(c1)Cc1ccccc1-2 showed a logP [24] of 3.99.
With O=[N+]([O-])c1ccc(-c2ccc([N+](=O)[O-])cc2)cc1 the logP [24] was 3.2.
Work on COC(=O)c1c(C)[nH]c(-c2cc(Cl)ccn2)c1C(=O)OC yielded a logP [25] of 2.63.
For O=C1CN(O)C(c2ccccc2)=c2cc(Cl)ccc2=N1, the logD ([26]; pH 4.0) was 1.49.
Cc1ccc(Cn2cc(F)c(=O)[nH]c2=O)cc1 showed a logD [27] of 1.5.
Compound COc1ccc(Cn2cc(F)c(=O)[nH]c2=O)cc1 has a logD [27] of 1.04.
Work on C=CCN1CCN(Cc2ccc(Cl)nc2)C1=N[N+](=O)[O-] yielded a logP [28] of 0.51.
In the case of CN1C2CCC1C(c1cccnc1)C2 (stereo not given), the logD [9] is reported as 1.65.
O=C(NC1CCN(CCF)CC1)c1ccc(I)cc1 showed a logP [29] of 2.57.
CN(C(=O)CCC(N)=O)c1ccc(S(=O)(=O)N(C)C)cc1 gave a logP [1] of -0.56.
Compound COP(=O)(OC)O/C(C)=C/C(=O)OC(C)c1ccccc1 (stereo not given) has a logP [17] of 3.
For Cc1cccc(C)c1NC(=O)CN(C)C, the logD [23] was 1.23.
Compound Brc1cccc(-c2cc(Br)ccc2Br)c1 has a logP [8] of 6.2.
For C=CCOc1ccccc1C(=C)n1ccnc1, the logP [30] was 2.74.
For C#CCN1CCN(Cc2ccc(Cl)nc2)C1=N[N+](=O)[O-], the logP [28] was 0.29.
In the case of CN1C(=O)CCC(N2C(=O)c3ccccc3C2=O)C1=O (stereo not given), the logD [31] is reported as 1.15.
With CCN(CC)CC(=O)OCCn1c([N+](=O)[O-])cnc1C the logD [20] was 0.03.
NS(=O)(=O)c1ccc(-c2cn([C@@H]3O[C@H](CO)[C@@H](O)[C@H](O)[C@H]3O)nn2)cc1 showed a logP [32] of -0.1.
Compound CC[C@@]1(Br)C(=O)NC(=O)N([C@H]2C[C@H](O)[C@@H](CO)O2)[C@H]1OC has a logP [33] of 0.4.
Compound CCc1ccc(NC(=O)CN2CCCCC2)cc1 has a logD [34] of 3.52.
COC(=O)c1c(C)[nH]c(-c2ncccc2Cl)c1C(=O)OC gave a logP [25] of 1.51.
C=C(c1ccccc1OCCCCCO)n1ccnc1 gave a logP [30] of 2.89.
For CC[C@]1(Cl)C(=O)NC(=O)N([C@H]2C[C@H](O)[C@@H](CO)O2)[C@@H]1OC, the logP [33] was 0.4.
Cc1nc(NCCN)c(C#N)cc1-c1ccncc1 gave a logP [22] of 1.91.
For O=C(NC1CCN(CCO)CC1)c1ccc(I)cc1, the logP [29] was 1.93.
For O=C(NCCN1C(=O)C=CC1=O)c1cncc(I)c1, the logD [15] was 0.63.
Work on NS(=O)(=O)c1ccc(-n2cc(-c3ccccc3)nn2)cc1 yielded a logP [32] of 2.3.
CC(C)(C)c1ccc(N2C(=O)CCC2=O)cc1 showed a logP [5] of 0.67.
With Clc1cc2c(oc3c(Cl)cc(Cl)c(Cl)c32)c(Cl)c1Cl the logP [19] was 7.51.
Compound CN(C)Cc1ccc(CSCCNc2[nH]ccc2[N+](=O)[O-])o1 has a logP [18] of 1.64.
In the case of CCCCCN1C(=O)CCC(N2C(=O)c3ccccc3C2=O)C1=O (stereo not given), the logD [31] is reported as 3.01.
Work on O=C(CN1CCCCC1)Nc1ccc(Cl)cc1 yielded a logD [34] of 3.26.
O=C1c2ccccc2C(=O)c2c(O)cccc21 showed a logP [2] of 3.52.
CCCCC1(C(=O)OC(C)CC)CCC=[N+]1[O-] (stereo not given) showed a logD [7] of 1.59.
For O=C1CN=C(c2ccccn2)c2cc(Br)ccc2N1, the logP [26] was 2.05.
Compound CCN(CC)C(=O)C1C2CC3C(OC(=O)C31)C2O (stereo not given) has a logP [6] of 0.15.
Cc1nc(C#Cc2cc(F)cc(C#N)c2)cs1 gave a logD [3] of 3.2.
With CCCCCCCCc1ccncc1 the logP [21] was 5.42.
In the case of COc1cc(Cc2cnc(N)nc2N)cc(OC)c1Oc1ccc(N)cc1, the logD [12] is reported as 0.9.
For CCCCC(=O)CC(=O)CCCC, the logP [16] was 3.56.
CCN(CC)CCOC(=O)c1ccc(N)cc1Cl gave a logP [14] of 2.86.
